Columns and labels:
yeast α-glucosidase = biological target: T1, yeast α-glucosidase (Saccharomyces cerevisiae, UniProt P53341); test: Glycosidase inhibition, laboratory 1: yeast α-glucosidase; format: biochemical; conditions: methanol
T1 construct: purchased Sigma
Description: (§1) The enzymes α-glucosidase (from yeast), β-glucosidases (from almond and bovine liver), α-galactosidase (from coffee beans), β-galactosidase (from bovine liver), α-mannosidase (from Jack bean), β-mannosidase (from snail), α-L-rhamnosidase (from Penicillium decumbens), α-L-fucosidase (from bovine kidney), trehalase (from porcine kidney), β-glucuronidases (from E. coli and bovine liver), amyloglucosidase (from A. niger), para-nitrophenyl glycosides, and various disaccharides were purchased from Sigma-Aldrich Co (St Louis, MO, USA).
(§2) Brush border membranes were prepared from the rat small intestine according to the method of Kessler et al. and were assayed at pH 6.8 for rat intestinal maltase using maltose. For rat intestinal maltase, porcine kidney trehalase, and A. niger amyloglucosidase activities, the reaction mixture contained 25 mM maltose and the appropriate amount of enzyme, and the incubations were performed for 10–30 min at 37 °C. The reaction was stopped by heating at 100 °C for 3 min. After centrifugation (600× g; 10 min), the resulting reaction mixture was added to the Glucose CII-test Wako (Wako Pure Chemical Ind., Osaka, Japan). The absorbance at 505 nm was measured to determine the amount of the released D-glucose. Other glycosidase activities were determined using an appropriate para-nitrophenyl glycoside as substrate at the optimum pH of each enzyme. The reaction mixture contained 2 mM of the substrate and the appropriate amount of enzyme. The reaction was stopped by addition of 400 mM Na2CO3. The released para-nitrophenol was measured spectrometrically at 400 nm. All reactions run in methanol.

almond β-glucosidase = test: Glycosidase inhibition, laboratory 1: almond β-glucosidase; format: biochemical; conditions: methanol
Description: as §1, §2

[1] = test system: bovine liver β-galactosidase; test: Glycosidase inhibition, laboratory 1: bovine liver β-galactosidase; format: biochemical; conditions: methanol
Description: as §1, §2

Jack bean α-mannosidase = biological target: T2, Jack bean α-mannosidase (Canavalia ensiformis, UniProt C0HJB3); test: Glycosidase inhibition, laboratory 1: Jack bean α-mannosidase; format: biochemical; conditions: methanol
T2 construct: purchased Sigma-Aldrich Co
T2 sequence (C0HJB3 1-981): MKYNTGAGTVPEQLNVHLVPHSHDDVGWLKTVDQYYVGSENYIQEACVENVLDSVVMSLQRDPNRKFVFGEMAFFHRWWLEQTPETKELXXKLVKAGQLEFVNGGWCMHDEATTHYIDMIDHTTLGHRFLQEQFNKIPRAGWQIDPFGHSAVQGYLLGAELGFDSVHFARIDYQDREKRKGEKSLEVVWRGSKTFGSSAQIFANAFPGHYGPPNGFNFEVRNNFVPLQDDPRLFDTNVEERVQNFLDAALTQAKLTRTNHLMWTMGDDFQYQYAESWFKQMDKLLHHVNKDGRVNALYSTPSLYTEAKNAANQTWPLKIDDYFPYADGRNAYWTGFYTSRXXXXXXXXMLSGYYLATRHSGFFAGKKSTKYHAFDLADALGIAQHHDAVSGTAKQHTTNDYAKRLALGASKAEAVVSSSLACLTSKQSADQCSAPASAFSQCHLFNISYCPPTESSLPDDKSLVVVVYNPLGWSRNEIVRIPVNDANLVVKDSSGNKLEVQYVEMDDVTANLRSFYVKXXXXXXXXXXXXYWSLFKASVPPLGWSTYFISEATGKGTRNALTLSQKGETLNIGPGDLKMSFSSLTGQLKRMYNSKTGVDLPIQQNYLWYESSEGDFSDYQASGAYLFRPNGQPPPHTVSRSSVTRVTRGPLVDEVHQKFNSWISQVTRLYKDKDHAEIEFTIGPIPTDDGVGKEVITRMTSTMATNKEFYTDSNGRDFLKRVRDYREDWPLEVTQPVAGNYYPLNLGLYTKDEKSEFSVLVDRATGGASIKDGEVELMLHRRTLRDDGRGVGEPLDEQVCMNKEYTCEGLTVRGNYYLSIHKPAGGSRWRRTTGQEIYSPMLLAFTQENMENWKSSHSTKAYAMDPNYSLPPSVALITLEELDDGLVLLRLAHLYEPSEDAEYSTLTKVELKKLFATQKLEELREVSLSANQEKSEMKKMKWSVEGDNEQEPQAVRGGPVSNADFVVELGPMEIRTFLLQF
Description: as §1, §2

[2] = biological target: T3, bovine kidney α-L-fucosidase (Bos taurus, UniProt Q2KIM0); test: Glycosidase inhibition, laboratory 1: α-L-fucosidase; format: biochemical; conditions: methanol
T3 construct: purchased Sigma-Aldrich Co
T3 sequence (Q2KIM0 23-468): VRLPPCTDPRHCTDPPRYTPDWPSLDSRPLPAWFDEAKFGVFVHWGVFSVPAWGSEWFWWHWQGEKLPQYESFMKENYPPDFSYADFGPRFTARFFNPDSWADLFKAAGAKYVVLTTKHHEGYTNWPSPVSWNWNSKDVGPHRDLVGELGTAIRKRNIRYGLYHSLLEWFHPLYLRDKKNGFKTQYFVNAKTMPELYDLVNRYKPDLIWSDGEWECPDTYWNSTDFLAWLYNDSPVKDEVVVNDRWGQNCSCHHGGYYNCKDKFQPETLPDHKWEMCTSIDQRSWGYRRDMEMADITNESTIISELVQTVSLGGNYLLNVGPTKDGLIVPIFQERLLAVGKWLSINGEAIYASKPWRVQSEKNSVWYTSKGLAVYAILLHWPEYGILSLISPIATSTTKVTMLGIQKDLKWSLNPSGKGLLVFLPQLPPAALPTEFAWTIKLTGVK
Description: as §1, §2

[3] = test system: bovine kidney N-acetyl-β-glucosaminidase; test: Glycosidase inhibition, laboratory 2: N-acetyl-β-glucosaminidase; format: biochemical; conditions: water
Protocol: All enzymes and para-nitrophenyl substrates were purchased from Sigma. Enzymes were assayed at 27 °C in 0.1 M citric acid/0.2 M disodium hydrogen phosphate buffers at the optimum pH for the enzyme. The incubation mixture consisted of 10 μL enzyme solution, 10 μL of 1 mg/mL aqueous solution of extract and 50 μL of the appropriate 5 mM para-nitrophenyl substrate made up in buffer at the optimum pH for the enzyme. The reactions were stopped by addition of 70 μL 0.4 M glycine (pH 10.4) during the exponential phase of the reaction, which had been determined at the beginning using uninhibited assays in which water replaced inhibitor. Final absorbances were read at 405 nm using a Versamax microplate reader (Molecular Devices). Assays were carried out in triplicate, and the values given are means of the three replicates per assay. All reactions run in water.

[4] = Appearance of the 1 mg/mL aqueous solution tested; format: physicochemical; conditions: 1 mg/mL in water

T1 sequence (P53341 whole entry): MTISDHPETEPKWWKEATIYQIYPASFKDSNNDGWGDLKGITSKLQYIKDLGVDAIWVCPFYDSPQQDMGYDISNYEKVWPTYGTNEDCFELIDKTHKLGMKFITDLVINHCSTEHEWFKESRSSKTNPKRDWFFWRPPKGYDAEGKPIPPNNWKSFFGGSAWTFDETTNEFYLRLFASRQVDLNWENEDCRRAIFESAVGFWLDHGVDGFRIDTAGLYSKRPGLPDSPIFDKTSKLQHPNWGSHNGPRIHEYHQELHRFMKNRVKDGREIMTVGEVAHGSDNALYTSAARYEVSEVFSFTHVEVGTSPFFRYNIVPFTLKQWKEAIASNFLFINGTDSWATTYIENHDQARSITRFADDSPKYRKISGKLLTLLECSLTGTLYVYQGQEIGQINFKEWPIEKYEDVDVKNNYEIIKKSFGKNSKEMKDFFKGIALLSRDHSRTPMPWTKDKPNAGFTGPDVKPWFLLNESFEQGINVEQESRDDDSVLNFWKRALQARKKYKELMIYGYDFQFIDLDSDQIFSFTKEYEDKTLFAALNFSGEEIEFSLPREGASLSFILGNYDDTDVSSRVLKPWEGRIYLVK

Compound | % inhibition at ~400 μM [3] | Appearance of the 1 mg/mL Aqueous Solution Tested [4] | inhibition at 100 µM (yeast α-glucosidase; 100 μM) | inhibition % at 100 μM (almond β-glucosidase) | IC50 [1] | inhibition at 100 µM (Jack bean α-mannosidase; 100 μM) | inhibition at 100 µM ([2]; 100 μM) | also measured
CC1(C)OB(c2ccccc2NC(=O)c2cc(Cl)c(Cl)c(Cl)c2Cl)OC1(C)C [ortho 5, 2,3,4,5-Tetrachloro-N-(2-(4,4,5,5-tetramethyl-1,3,2-dioxaborolan-2-yl)phenyl)benzamide] | 28.8% | some in solution with undissolved sediment |  |  |  |  |  | inhibition at 10 µM (yeast α-glucosidase): 0%; inhibition % at 10 μM (almond β-glucosidase): ^cNI ^d (11.6%); inhibition % at 10 μM [1]: ^cNI ^d (0%); inhibition at 10 µM (Jack bean α-mannosidase): 3.4%; inhibition at 10 µM [2]: 0%
CC1(C)OB(c2cccc(NC(=O)c3cc(Cl)c(Cl)c(Cl)c3Cl)c2)OC1(C)C [meta 5, 2,3,4,5-tetrachloro-N-(3-(4,4,5,5-tetramethyl-1,3,2-dioxaborolan-2-yl)phenyl)benzamide] | 30.6% | some in solution with undissolved sediment | 12.8% | ^aNI ^b (30.2%) | 213 µM | 7.6% | 3.3% | 
CC1(C)OB(c2ccc(NC(=O)c3cc(Cl)c(Cl)c(Cl)c3Cl)cc2)OC1(C)C [para 5, 2,3,4,5-tetrachloro-N-(4-(4,4,5,5-tetramethyl-1,3,2-dioxaborolan-2-yl)phenyl)benzamide] | 20.6% | some in solution with undissolved sediment | 0% | ^aNI ^b (17.1%) | 333 µM | 19.3% | 5.1% | 
N[C@@H](Cc1ccc(B(O)O)cc1)C(=O)O [BPA, 4-borono-L-phenylalanine, reference compound] |  | some in solution with undissolved sediment |  | ^cNI ^d (0%) |  |  |  | inhibition % at 100 μM [1]: ^cNI ^d (10.9%); % inhibition at ~400 μM ([3]; 400 µM): 6.7%
CC1(C)OB(c2ccc(CN3C(=O)c4c(Cl)c(Cl)c(Cl)c(Cl)c4C3=O)cc2)OC1(C)C [para 3, 4,5,6,7-Tetrachloro-2-(4-(4,4,5,5-tetramethyl-1,3,2-dioxaborolan-2-yl)benzyl)isoindoline-1,3-dione] | 8.3% | some in solution with undissolved sediment | 0% | ^aNI ^b (0.7%) |  | 0% | 0% | 
CC1(C)OB(c2ccccc2CNC(=O)c2cc(Cl)c(Cl)c(Cl)c2Cl)OC1(C)C [ortho 8, 2,3,4,5-tetrachloro-N-(2-(4,4,5,5-tetramethyl-1,3,2-dioxaborolan-2-yl)benzyl)benzamide] | 28.3% | some in solution with undissolved sediment | 0% |  | 278 µM | 12.5% | 19.9% | IC50 (almond β-glucosidase): 254 µM
Borocaptate sodium [BSH, reference compound] | 37.1% | in solution |  |  |  |  |  | inhibition % at 1000 μM (yeast α-glucosidase; 1000 μM): ^aNI ^b(6.9%); inhibition % at 1000 μM (almond β-glucosidase; 1000 μM): ^aNI ^b (0%); inhibition % at 1000 μM ([1]; 1000 μM): ^aNI ^b (0%); inhibition % at 1000 μM (Jack bean α-mannosidase; 1000 μM): ^aNI ^b (7.9%); inhibition % at 1000 μM ([2]; 1000 μM): ^aNI ^b (0%)
CC1(C)OB(c2cccc(CN3C(=O)c4c(Cl)c(Cl)c(Cl)c(Cl)c4C3=O)c2)OC1(C)C [meta 3, 4,5,6,7-Tetrachloro-2-(3-(4,4,5,5-tetramethyl-1,3,2-dioxaborolan-2-yl)benzyl)isoindoline-1,3-dione] | 17.1% | opaque suspension |  |  |  |  |  | inhibition at 10 µM (yeast α-glucosidase): 0%; inhibition % at 10 μM (almond β-glucosidase): ^cNI ^d (5.0%); inhibition % at 10 μM [1]: ^cNI ^d (12.4%); inhibition at 10 µM (Jack bean α-mannosidase): 2.7%; inhibition at 10 µM [2]: 4.7%
N[C@@H](Cc1ccc(B(O)O)cc1)C(=O)O [^10B-BPA, reference compound] |  | some in solution with undissolved sediment |  | ^cNI ^d (0%) |  |  |  | inhibition % at 100 μM (yeast α-glucosidase; 100 μM): ^cNI ^d (0%); inhibition % at 100 μM [1]: ^cNI ^d (0%); inhibition % at 100 μM (Jack bean α-mannosidase; 100 μM): ^cNI ^d (0%); inhibition % at 100 μM ([2]; 100 μM): ^cNI ^d (0%); % inhibition at ~400 μM ([3]; 400 µM): 6.3%
